Measurements taken from US4576951A, “Proglumide, pharmaceutical preparations and compositions including it for use in human pain relief” (priority 1983, dated 1986).
Read-outs that look alike come from different tables or passages of the source.

Assays:
[1] = assay type: in vivo, rats
Procedure: The method is that described by Harris et al. (J. Pharmcol. Exp. Ther. 143 (1964) 141-148).
Male rats are used which have a weight of about 150-200 g and which have not been fasting. A point is chosen on the tail and this is irradiated by a heat source (75° C.) and the time (in seconds) for which the animal remains without moving its tail is measured.
A maximum period of time under the heat source of 8 seconds is chosen after which the animal is, in any case, removed in order to avoid tissue damage. The measurement is effected before (controls) and after treatment with the drugs. […] The percentage variation is calculated for each individual animal by the following formula: [formula] (time measurements are in seconds)
The measurements are carried out 10, 20, 30, 45, 60 and 90 minutes after treatment with the analgesics.

[2] = assay type: in vivo, rats; conditions: morphine 5 mg/kg i.p. repeated
Procedure: Activity of proglumide as an antagonist to the tolerance induced by opiates
Groups of five male rats having a weight of about 200-250 g were used.
The determination of the pain threshold was effected 1, 3, 6, 9 and 12 hours after the first treatment by the Tail Flick test.
The data given in Table 5 indicate the percentage variations in the latency (appearance of pain) before and after treatment with the drugs.

[3] = Hot plate test: potentiation of analgesic activity of opiates; assay type: in vivo, rats; conditions: morphine 2.5 or methadone 1 mg/kg s.c. alone
Procedure: The method is that described by Eddy et al. (J. Pharmac. Exp. Therm. 107, 385 (1953)).
Groups of five male rats having a weight of about 150 g and which have not been fasting are used.
The animals are placed on a metal plate which is on the bottom of a transparent cylinder heated to 55°±1° C. by an azeotropic boiling mixture (1:1 acetone-ethyl formate). The time which passes between the moment at which the animal is placed on the hot plate and the moment at which it licks its feet or tries to jump out of the cylinder is defined as the reaction time. The control reaction time is measured 10 and 5 minutes before the administration of the drugs and 10, 20, 30, 45, 60, 90 minutes afterwards. The animals are left on the plate for a maximum period of 30 seconds. The response to the administration of the product is considered positive if at least a doubling of the normal reaction time is seen. The results obtained are given in Table 2 which records the groups treated, the doses administered and the stay times on the plate expressed as the number of positive responses over the number treated.

in vivo = conditions: mouse, sc
Procedure: The drug (or drugs) under examination was administered sub-cutaneously. The animals were kept under observation for 15 days after the administration.
Ten animals were used for each dose.

[4] = Randall-Selitto test: analgesia produced by opiates; assay type: in vivo, rats; conditions: for t (vs controls): Student t
Procedure: Analgesic activity in the Randall-Selitto test
The method is that described by Winters et al (J. Pharmacol. Exp. Ther. 150, 165 (1965). Groups of five female rats having an average weight of about 100 g and which have not been fasting are used. A 20% saline solution of yeast is administered into the sub-plantar region of the right hind leg.
The compounds to be tested are administered s.c. 2 hours after the injection of inflammatory agent 0.5 hours after the administration of the drugs, the pain threshold is determined by measuring the pressure needed to induce a flight reaction in the animal. The results obtained are given in Table No. 3 which records the groups treated and the doses administered, the pain threshold expressed as a pressure exerted in mmHg to cause the pain stimulus (average±S.E.) and a statistical evaluation of the results of the various treated groups by the Student "t" test.

[5] = Potentiation of analgesic effect of enkephalinamide (DALA) i.c.v. (Tail Flick test); assay type: in vivo, rats; conditions: alone i.c.v.: proglumide 1 or DALA 10 μg/kg
Procedure: Potentiation of the analgesic activities of enkephalins induced by proglumide
In order to check one of the possible mechanisms for the action of proglumide, that is its possible inhibition of the enzymatic degradation of endogenous enkephalins, the following experiment was carried out:
A cannula was implanted in the right lateral ventricle of male rats having a weight of 150-200 g (groups of five animals were used) in order to allow the intracerebroventricular (I.C.V.) administration of drugs according to the method of Noble et al (Life Science 6, (1970) 281-291). […]

[6] = higher dose alone s.c.: morphine 2, propoxyphene 25, pentazocine 6 mg/kg
[7] = lower dose alone s.c.: morphine 0.5, propoxyphene 7.5, pentazocine 2 mg/kg

Compound: CN1CC[C@]23c4c5ccc(O)c4O[C@H]2[C@@H](O)C=C[C@H]3[C@H]1C5 [Morphine]
- percentage variation in the latency of the pain sensation ([1]; 10 min, morphine 3 or dextropropoxyphene 6 mg/kg alone): 29.0 ± 20.4%
- percentage variation in the latency of the pain sensation ([1]; 20 min, morphine 3 or dextropropoxyphene 6 mg/kg alone): 35.0 ± 9.4%
- percentage variation in the latency of the pain sensation ([1]; 30 min, morphine 3 or dextropropoxyphene 6 mg/kg alone): 71.4 ± 12.1%
- percentage variation in the latency of the pain sensation ([1]; 45 min, morphine 3 or dextropropoxyphene 6 mg/kg alone): 49.3 ± 21.3%
- percentage variation in the latency of the pain sensation ([1]; 60 min, morphine 3 or dextropropoxyphene 6 mg/kg alone): 38.8 ± 23.9%
- percentage variation in the latency of the pain sensation ([1]; 90 min, morphine 3 or dextropropoxyphene 6 mg/kg alone): 38.3 ± 20.1%
- average percentage variation in latency M (1-90') ± S.E. ([1]; mean 1-90 min, morphine 3 or dextropropoxyphene 6 mg/kg alone): 43.62 ± 7.37%
- percentage variation in the latency ([2]; 1 h): 58.98 ± 16.3%
- percentage variation in the latency ([2]; 3 h): 67.58 ± 11.1%
- percentage variation in the latency ([2]; 6 h): 30.0 ± 15.3%
- percentage variation in the latency ([2]; 9 h): 38.62 ± 8.7%
- percentage variation in the latency ([2]; 12 h): 23.1 ± 8.6%

Compound: CCC(=O)C(CC(C)N(C)C)(c1ccccc1)c1ccccc1 (centres unmarked) [Methadone]
- positive responses / treated ([3]; 10 min): 1/5
- positive responses / treated ([3]; 20 min): 2/5
- positive responses / treated ([3]; 30 min): 1/5
- positive responses / treated ([3]; 45 min): 2/5
- positive responses / treated ([3]; 60 min): 1/5
- positive responses / treated ([3]; 90 min): 1/5
- A* = Tot. positive X/30 ([3]; total over 10-90 min): 8
- LD50 at 360 h (in vivo): 53.5 mg/kg

Compound: CC(C)=CCN1CCC2(C)c3cc(O)ccc3CC1C2C (centres unmarked) [Pentazocine]
- t (vs controls) [4, 6]: 6.63
- t (vs controls) [4, 7]: 2.50
- P (vs controls) [4, 6]: < 0.001
- Pain threshold (mmHg) M ± S.E. [4, 6]: 48.6 ± 4.93 mmHg
- P (vs controls) [4, 7]: < 0.05
- Pain threshold (mmHg) M ± S.E. [4, 7]: 27.9 ± 5.71 mmHg

Compound: D-ala-methionine-enkephalinamide [DALA]
- % variation in the latency to pain ([5]; 5 min): 61.06 ± 11.8%
- % variation in the latency to pain ([5]; 15 min): 51.04 ± 4.6%
- % variation in the latency to pain ([5]; 30 min): 40.00 ± 9.04%
- % variation in the latency to pain ([5]; 45 min): 25.24 ± 7.7%
- % variation in the latency to pain ([5]; 60 min): 14.68 ± 9.2%
- % variation in the latency to pain ([5]; 90 min): 10.06 ± 8.3%
- Average (0 → 90) % variation in the latency to pain [5]: 33.7 ± 8.3%

Compound: CCC(=O)O[C@](Cc1ccccc1)(c1ccccc1)[C@H](C)CN(C)C [Dextropropoxyphene]
- t (vs controls) [4, 6]: 3.71
- t (vs controls) [4, 7]: 3.34
- P (vs controls) [4, 6]: < 0.01
- Pain threshold (mmHg) M ± S.E. [4, 6]: 50.7 ± 10.02 mmHg
- P (vs controls) [4, 7]: < 0.05
- Pain threshold (mmHg) M ± S.E. [4, 7]: 37.5 ± 7.12 mmHg
- X, potency ratio with respect to morphine = 1 ([1]; rat, in vivo): 1
- average percentage variation in latency M (1-90') ± S.E. ([1]; rat, in vivo): 33.48 ± 7.16
